Results from PubChem BioAssay (NCI).
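Method: 48-hour compound exposure of cells in 96-well plates, five concentrations, linear interpolation of endpoints. Here, GI50 denotes the concentration required for 50% inhibition of growth. TGI: total growth inhibition.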

Key:
Assay in all cases: NCI-60 cell line screen, 48 h
BT-549 breast = system: BT-549 breast
HOP-62 NSCLC = system: HOP-62 NSCLC
MCF7 breast = system: MCF7 breast
MDA-N = system: MDA-N
NCI-H522 lung = system: NCI-H522 lung
PC-3 prostate = system: PC-3 prostate
RPMI-8226 leukemia = system: RPMI-8226 leukemia
SF-539 CNS = system: SF-539 CNS
SR leukemia = system: SR leukemia
SW-620 colon = system: SW-620 colon

Compound | TGI (BT-549 breast) [µM] | TGI (HOP-62 NSCLC) [µM] | TGI (MCF7 breast) [µM] | TGI (MDA-N) [µM] | TGI (NCI-H522 lung) [µM] | TGI (PC-3 prostate) [µM] | TGI (RPMI-8226 leukemia) [µM] | TGI (SF-539 CNS) [µM] | TGI (SR leukemia) [µM] | TGI (SW-620 colon) [µM] | GI50 (SF-539 CNS) [µM]
COc1ccc2cc(CNCCCCCCNC(=O)Nc3cccc4ccccc34)ccc2c1 | > 100 | > 100 | > 100 | > 100 | > 100 | > 100 | > 100 | > 100 | > 100 | > 100 | –
CC(NC(CC12CC3CC(CC(C3)C1)C2)C(N)=O)c1ccccc1 (configuration not stated) | – | > 100 | > 100 | 75.6 | 47.5 | > 100 | 40.5 | – | 41.3 | > 100 | –
N#CCCN(C(=O)Nc1ccc(NC(=O)N(CCC#N)c2ccccc2)cc1)c1ccccc1 | > 100 | > 100 | > 100 | > 100 | > 100 | > 100 | > 100 | – | > 100 | > 100 | –
CC(=O)CC(O)(C(F)(F)Cl)C(F)(Cl)Cl (configuration not stated) | – | > 10 | > 10 | > 10 | > 10 | > 10 | – | > 10 | – | > 10 | –
O=C(OC[C@H]1C[C@H]2C(=O)OCCC[C@H]2O1)c1ccccc1 | – | > 100 | > 100 | > 100 | > 100 | > 100 | > 100 | – | > 100 | > 100 | –
NC1CC(=O)c2c(I)sc(I)c21 (configuration not stated) | 37.4 | 40.1 | > 67.7 | 44.7 | 24.3 | 42.8 | 29.9 | 44.8 | 48.4 | 46.1 | –
CCOC(=O)/C(C(=O)c1ccc[nH]1)=C1/CCCN1C | > 100 | > 100 | > 100 | > 100 | – | > 100 | > 100 | > 100 | > 100 | > 100 | –
CCn1c(=O)c2nc(SC)sc2n(-c2ccccc2)c1=S | – | > 100 | > 100 | > 100 | > 100 | > 100 | > 100 | > 100 | > 100 | > 100 | –
CC1(C)OCC(/C=C\C(O)CC2(C)OCCO2)CO1 (configuration not stated) | > 100 | > 100 | > 100 | > 100 | > 100 | > 100 | > 100 | > 100 | > 100 | > 100 | –
C1CCC(CC2CCC(NC3=NCCO3)CC2)CC1 (configuration not stated) | – | 39.4 | 32.1 | 35.9 | 41.9 | 31.7 | 55.9 | 31.1 | 52.6 | 41.7 | –
CCOc1c2c(cc3c1C(=O)c1c(OC)cccc1C3=O)C=C(OC)CC2 | – | > 25 | > 25 | 19.9 | > 25 | > 25 | > 25 | > 25 | 22.9 | > 25 | –
O=C(O)COc1c(Cl)cc(Cl)c(C(c2c(Cl)cc(Cl)c(OCC(=O)O)c2Cl)C(Cl)(Cl)Cl)c1Cl | 51.3 | 15.7 | > 100 | > 100 | > 100 | > 100 | 85.9 | > 100 | – | > 100 | –
C#C[C@]1(O)CC[C@H]2[C@@H]3CCC4=C/C(=N/OC(=O)c5cccc6cc7ccccc7nc56)CC[C@@H]4[C@H]3CC[C@@]21CC | > 100 | > 100 | > 100 | > 100 | – | > 100 | > 100 | > 100 | > 100 | > 100 | –
Cc1csc(NCc2ccc(Cl)cc2)n1 | > 100 | > 100 | > 100 | > 100 | > 100 | > 100 | > 100 | > 100 | > 100 | > 100 | –
O=C(Cn1c(=O)oc2ccccc21)N(c1ccccc1)c1ccccc1 | > 100 | > 100 | > 100 | > 100 | – | > 100 | > 100 | > 100 | > 100 | > 100 | –
C=CCCCCCCCCCOC1C=CC(O)C(CO)O1 (configuration not stated) | > 100 | > 100 | > 100 | 82.1 | > 100 | 86.4 | 50.4 | > 100 | – | > 100 | –
COc1ccc(/C=N/n2c(-c3ccccc3)n[nH]c2=O)c(OC)c1 | > 44.6 | > 68.3 | > 100 | > 100 | > 74.3 | > 100 | > 100 | > 84.9 | > 100 | > 100 | –
Cc1[nH]c2c(C)c3c([nH]c4ccc(Cl)cc43)c(C)c2c(=O)c1C | > 100 | 19.8 | 6.9 | 32.6 | 12.9 | 22.4 | 24.9 | 36 | 8.19 | > 100 | –
CCc1nnc2sc(-c3ccc(-c4ccccc4[N+](=O)[O-])o3)nn12 | > 100 | > 100 | > 100 | 46.1 | > 100 | > 100 | > 100 | 89 | 72.6 | > 100 | –
COc1cccc(C2c3cc4c(cc3OC(NNS(=O)(=O)c3ccc(C)cc3)C2C)OCO4)c1O (configuration not stated) | 68.8 | 53 | 51.2 | 80.1 | 35.9 | 65.8 | 32.4 | 51.8 | 26.2 | > 100 | –
CC(=O)N(C(=O)CC(=O)N1N=C(C)C(N=Nc2cccc([N+](=O)[O-])c2)C1=O)c1ccc(Cl)cc1 (configuration not stated) | > 10 | > 10 | > 10 | > 10 | > 10 | > 10 | > 10 | > 10 | > 10 | > 10 | –
CCCNC(=O)c1cc(OC)c(OC)cc1NC(=O)C12CC3CC(CC(C3)C1)C2 | 31.9 | 34.7 | 64.2 | 30.3 | 30 | 35.1 | 92.7 | 46.9 | – | > 100 | –
CC(C)=CC(=O)c1[nH]c2ccccc2c1CC(=O)NCCc1cnc[nH]1 | > 100 | – | > 100 | > 100 | > 100 | > 100 | – | > 100 | > 100 | > 100 | –

Compound | TGI (BT-549 breast) [µM] | TGI (HOP-62 NSCLC) [µM] | TGI (MCF7 breast) [µM] | TGI (MDA-N) [µM] | TGI (NCI-H522 lung) [µM] | TGI (PC-3 prostate) [µM] | TGI (RPMI-8226 leukemia) [µM] | TGI (SF-539 CNS) [µM] | TGI (SR leukemia) [µM] | TGI (SW-620 colon) [µM] | GI50 (SF-539 CNS) [µM]
c1ccc(-c2cc(-c3ccccc3)nc(-c3ccncc3)c2)cc1 | > 100 | 55.4 | > 100 | > 100 | > 100 | > 100 | > 100 | – | > 100 | > 100 | –
CCOC(=O)c1c(NS(=O)(=O)c2ccccc2)sc2c1CCCC2 | > 100 | > 100 | > 100 | > 100 | – | > 100 | > 100 | > 100 | > 100 | – | –
COc1ccc(C(CC(=O)c2cccs2)C(=O)c2ccc3c(c2)OCO3)cc1 (configuration not stated) | – | > 100 | > 100 | > 100 | – | > 100 | > 100 | > 100 | – | > 100 | –
CSC(SC)=C(C#N)C(=O)Nc1ccc(Cl)cc1 | > 100 | – | > 100 | > 100 | – | > 100 | > 100 | 67.7 | > 100 | > 100 | –
O=[N+]([O-])c1ccc(CSC2=C(c3ccc(Cl)cc3)S/C(=C3\SC(SCc4ccc([N+](=O)[O-])cc4)=C(c4ccc(Cl)cc4)S3)S2)cc1 | > 100 | > 100 | > 100 | > 100 | > 100 | > 100 | – | > 100 | – | > 100 | –
Cc1nc2nnc(CCCCCCCCc3nnc4nc(C)[nH]n34)n2[nH]1 | > 100 | > 100 | > 100 | > 100 | > 100 | > 100 | – | > 100 | – | > 100 | –
O=C1OCOC2(CCCC2)C1c1ccccc1 (configuration not stated) | – | > 100 | – | > 100 | > 100 | > 100 | > 100 | > 100 | > 100 | > 100 | –
CCC(C)C(NC(=O)c1cccc2c(=O)c3ccccc3[nH]c12)C(=O)O (configuration not stated) | – | > 100 | > 100 | > 100 | > 100 | > 100 | > 100 | – | > 100 | > 100 | –
CN1N=C(c2ccncc2)OC1c1ccc(C(F)(F)F)cc1 (configuration not stated) | – | > 100 | > 100 | > 100 | > 100 | > 100 | > 100 | > 100 | – | > 100 | –
O=C(O)c1ccccc1Sc1ccc(C=C2NC(=S)N(c3ccccc3)C2=O)s1 | > 100 | > 100 | > 100 | > 100 | 38.9 | > 100 | > 100 | – | > 100 | > 100 | –
COC(=O)c1sc2c(c1C(=O)OC)C(=Nc1ccc(OC)cc1)SC2=Nc1ccc(OC)cc1 | 3.43 | 2.23 | 2.47 | 2.52 | 2.45 | 1.04 | – | 0.889 | > 100 | 0.7 | –
Cc1ccc([N+](=O)[O-])cc1S(=O)(=O)Nc1ccc(C2=NN(S(=O)(=O)c3cc([N+](=O)[O-])ccc3C)C(c3ccccc3O)C2)cc1 (configuration not stated) | > 100 | > 100 | > 100 | > 100 | > 100 | > 100 | > 100 | – | > 100 | > 100 | –
CCN(CC)C(=O)N[C@@H](CC(C)C)C(=O)NC | > 100 | > 100 | > 100 | > 100 | > 100 | > 100 | > 100 | – | > 100 | > 100 | –
CN(CCNC(=O)c1nn(C)c2c1Cc1ccccc1-2)CCNC(=O)c1nn(C)c2c1Cc1ccccc1-2 | 30.9 | 34.2 | 26 | 29.4 | 30 | 47.6 | – | 27.6 | – | 38.9 | –
Cc1c(CCCl)c(Cl)n2c(nc3ccccc32)c1C#N | 3.98 | 4.8 | 5.28 | – | 1.46 | 2.4 | 0.385 | 2.81 | 0.649 | 0.801 | –
CNC(=O)OC1/C(C)=C\C(C)C(O)C(OC)CC(C)CC2=C(OC)C(=O)C=C(C2=O)N(C)C(=O)/C(C)=C/C=C\C1OC (configuration not stated) | 18.5 | 24 | – | 10.7 | 6.09 | 26 | 13.2 | 23.3 | – | 12.5 | < 0.1
CCCCCCCC(=O)NC(C)(C)C(=O)NCC(=O)NC(CC(C)C)C(=O)NC(C)(C)C(=O)NCC(=O)NCC(=O)NC(CC(C)C)C(=O)NC(C)(C)C(=O)NCC(=O)NC(C(=O)NC(CO)CC(C)C)C(C)CC (configuration not stated) | 6.87 | 8.12 | – | 7.37 | 7.26 | 7.08 | 4.27 | – | 8.63 | 9.28 | –
CCOC(=O)c1c(N2CCN(C)CC2)[nH]c(=O)c(C(c2c(Cl)cccc2Cl)c2c(O)c(C(=O)OCC)c(N3CCN(C)CC3)[nH]c2=O)c1O | 40.8 | > 100 | > 100 | – | 42 | 47.5 | > 100 | 39.5 | 67.6 | 68.2 | –
O=[N+]([O-])C(/C=C(\Cl)[N+](=O)[O-])=C(N1CCOCC1)N1CCOCC1 | – | 37.7 | 35.3 | > 100 | > 100 | > 100 | 54.6 | 39.9 | > 100 | – | –
O=C1CC2(CCN(Cc3ccccc3)CC2)C(=O)N1N1CCCCC1 | > 100 | > 100 | > 100 | > 100 | > 100 | > 100 | > 100 | > 100 | – | > 100 | –
CC(C)C(Sc1nc(N)nc2nc[nH]c12)C(=O)O (configuration not stated) | > 100 | > 100 | > 100 | > 100 | > 100 | > 100 | > 100 | – | > 100 | > 100 | –
NC1=Nc2ncccc2C(=O)NN1 | > 10 | > 10 | > 10 | > 10 | – | > 10 | > 10 | > 10 | > 10 | > 10 | –
